Data reported in the supplement of paper PMC10949913.

How the values were obtained:
Assay in all cases: area under concentration-response curve (viability) (AUC (a.u.)); higher = less active
Conditions in all cases: 48 h
[1] = test system: NCI-H295R
Summary of the method: (§1)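 Three adrenocortical carcinoma cell lines were seeded at 500–1,000 cells/well in 5 µL medium in 1,536-well plates. 23 nL of each MIPE 5.0 library compound was added at 11 concentrations. After 48 h (per the protocol name), CellTiter-Glo was added for 15 minutes at room temperature and luminescence was read. Signals were normalised per plate to vehicle and empty-well controls. AC50 and area under the curve came from fitted concentration-response curves, keeping only inhibitory or non-responding curve classes.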

[2] = test system: CU-ACC1
Summary of the method: as §1

[3] = test system: CU-ACC2
Summary of the method: as §1

SMILES	area under concentration-response curve [1]	area under concentration-response curve [2]	area under concentration-response curve [3]
C=C(C)[C@@H]1CC[C@]2(C(=O)O)CC[C@]3(C)[C@H](CC[C@@H]4[C@@]5(C)CC[C@H](O)C(C)(C)[C@@H]5CC[C@]43C)[C@@H]12	587	541	646
Oc1ccc(C2CNCCc3c2cc(O)c(O)c3Cl)cc1 (configuration not stated)	524	468	538
COC1=C(NC2=NC=C(Cl)C(=N2)N[C@@H]3[C@H]\4C[C@@H](\C=C4)[C@H]3C(N)=O)C=CC5=C1CCC(CC5)N6CCOCC6 (some centres not stated)	460	526	600
Nc1ncnc2nc(-c3ccc(N4CCOCC4)nc3)cc(-c3cccc(Br)c3)c12	459	492	525
O=C(O)c1cc(O)c2c(c1)C(=O)c1cccc(O)c1C2=O	582	529	622
N#CCC1(n2cc(-c3ncnc4[nH]ccc34)cn2)CN(C2CCN(C(=O)c3ccnc(C(F)(F)F)c3F)CC2)C1	508	460	453
Fc1ccc(Cl)cc1-c1nc(Nc2ccncc2)c2nccnc2n1	549	553	612
O=C(C[C@@H]1C/C=C\CCC(=O)O[C@H](c2ccccc2)CNC1=O)NCc1ccc(Cl)cc1	569	526	620
NC(=O)c1cnc(-c2ccc(C3(N)CCC3)cc2)c(-c2ccccc2)c1	554	537	648
C[C@H]1COC/2=C1/C(=O)C(=O)C3=C4CCCC(C)(C)C4=CC=C23	540	525	601
OC(=O)C(CC/1=C/C(=O)NC2=CC=CC=C12)NC(=O)C3=CC=C(Cl)C=C3 (configuration not stated)	483	521	610
CN(C)C(=O)COC(=O)Cc1ccc(OC(=O)c2ccc(NC(=N)N)cc2)cc1	541	464	564
COCCCN1CCC(NC(=O)c2cc(Cl)c(N)c3c2OCC3)CC1	565	562	549
OC[C@H]1O[C@H](C[C@@H]1O)N2\C=C(\I)C(=O)NC2=O	501	496	543
O=C1CC[C@@]2(O)[C@H]3Cc4ccc(O)c5c4[C@@]2(CCN3CC2CC2)[C@H]1O5	559	413	623
CN(C)c1ccc(-c2nc3c(N4CCN(CC(=O)Nc5nccs5)CC4)c(Cl)cnc3[nH]2)cc1	600	618	658
O=C(CBr)N1CC([N+](=O)[O-])([N+](=O)[O-])C1	439	454	464
CC(C)(O)C(=O)Nc1ccc([N+](=O)[O-])c(C(F)(F)F)c1	537	505	602
CN(C)c1ccc(O)c2c1C[C@H]1C[C@H]3[C@H](N(C)C)C(O)=C(C(N)=O)C(=O)[C@@]3(O)C(O)=C1C2=O	473	453	524
COc1ccc([C@@H](O)[C@@H](C)Oc2ccc([C@H]3O[C@H](c4ccc(O[C@H](C)[C@H](O)c5ccc(OC)c(OC)c5)c(OC)c4)[C@H](C)[C@H]3C)cc2OC)cc1OC	479	269	575
CC1(C)NC(=O)N(c2ccc([N+](=O)[O-])c(C(F)(F)F)c2)C1=O	543	511	634
Oc1ccc(/C=C/c2cc(O)cc(O)c2)cc1	547	482	574

SMILES	area under concentration-response curve [1]	area under concentration-response curve [2]	area under concentration-response curve [3]
CC(C)OC1=C(F)C=C(C=C1)C2=N[N]([C@@H](C)C/3=C(C4=CC(=CC=C4)F)/C(=O)C5=CC(=CC=C5O3)F)C6=C2C(=NC=N6)N	547	516	641
O=C(O)c1cccc(-c2noc(-c3ccccc3F)n2)c1	451	477	559
COCC(=O)NC/C=C/c1ccc2ncnc(Nc3ccc(Oc4ccc(C)nc4)c(C)c3)c2c1	552	522	613
OC[C@H]1O[C@H](C[C@@H]1O)N2/C=C(C(=O)NC2=O)/C(F)(F)F	583	538	650
C[C@H]1COC2=C3N1\C=C(C(O)=O)/C(=O)C3=CC(=C2N4CCN(C)CC4)F	595	522	650
CC1(C)CC[C@@]2(CC[C@]3(C)\C(=C/C[C@@H]4[C@@]5(C)C[C@@H](O)[C@H](O)C(C)(C)[C@@H]5CC[C@@]34C)[C@@H]2C1)C(O)=O	531	478	574
CN(C(=O)c1ccc(F)cc1C(F)(F)F)C1CCN(c2nnc(-c3ccnn3C)c3ccccc23)CC1	566	495	601
CN[C@H](CC(C)C)C(=O)N[C@H]1C(=O)N[C@@H](CC(N)=O)C(=O)N[C@H]2C(=O)N[C@H]3C(=O)N[C@H](C(=O)N[C@H](C(=O)O)c4cc(O)cc(O)c4-c4cc3ccc4O)[C@H](O)c3ccc(c(Cl)c3)Oc3cc2cc(c3O[C@@H]2O[C@H](CO)[C@@H](O)[C@H](O)[C@H]2O[C@H]2C[C@](C)(N)[C@H](O)[C@H](C)O2)Oc2ccc(cc2Cl)[C@H]1O	614	589	676
Cc1nc(NC(=O)N2CCC[C@H]2C(N)=O)sc1-c1csc(C(C)(C)C)n1	377	414	445
N/C(=N\OCC(O)CN1CCCCC1)c1cccnc1 (configuration not stated)	455	415	447
Cn1c(=O)c2c(ncn2CC(O)CO)n(C)c1=O (configuration not stated)	483	437	531
C[C@]12CC[C@@H]3c4ccc(O)cc4C[C@@H](CCCCCCCCC[S+]([O-])CCCC(F)(F)C(F)(F)F)[C@H]3[C@@H]1CC[C@@H]2O (some centres not stated)	530	391	564
CC(C(C)N1CC(=O)NC(=O)C1)N1CC(=O)NC(=O)C1 (configuration not stated)	538	488	605
C[C@@H]1C(=O)OC2[C@H](O)[C@]34[C@H]5C[C@@H](C(C)(C)C)[C@]36[C@@H](OC(=O)[C@@H]6O)O[C@@]4(C(=O)O5)[C@]21O (some centres not stated)	532	463	556
OC1=CC=C(C=C1)\C2=C\OC3=C(C(=CC(=C3)O)O)C2=O	555	435	499
OC(Cn1cncn1)(Cn1cncn1)c1ccc(F)cc1F	514	466	546
CCC1(c2ccc(N)cc2)CCC(=O)NC1=O (configuration not stated)	568	591	631
CCCN[S+](=O)([O-])Nc1ncnc(OCCOc2ncc(Br)cn2)c1-c1ccc(Br)cc1	518	381	567
NC/1=N/[C@]2(COC[C@H]2CS1)C3=CC(=CC=C3F)NC(=O)C4=NC=C(F)C=C4	490	499	569
COc1cc2cc(c1Cl)N(C)C(=O)C[C@H](OC(=O)C(C)C)[C@]1(C)O[C@@H]1[C@H](C)[C@@H]1C[C@@](O)(NC(=O)O1)[C@H](OC)/C=C/C=C(\C)C2	346	505	440
COc1ccc(CC2SC(=O)NC2=O)cc1C(=O)NCc1ccc(C(F)(F)F)cc1 (configuration not stated)	585	570	645
COc1ccc([C@@H]2Sc3ccccc3N(CCN(C)C)C(=O)[C@@H]2OC(C)=O)cc1	533	473	576
